Holding throughout (conditions): 72 h
In assay [1] the test system is Vero E6. In words: drug sensitivity score (DSS) for viability; higher = more toxic; extreme values may be limits of the assay.
Assay [2] relates to HepG2. The description is as above.
For assay [3], the system named is Calu-3. The assay is described as above.
The test system of assay [4] is Caco-2. The description is as above.
Assay [5] concerns U2OS. The description is as above.
Assay [6] concerns HepG2. In words: relative viability EC50 (midpoint between 100% and the lowest measured viability); higher = less toxic.
For assay [7], the system named is Calu-3. Described as above.
In assay [8] the test system is Caco-2. The description is as above.
In assay [9] the test system is U2OS. Described as above.
Assay [10] deals with Vero E6. In words: cell viability relative to DMSO; higher = less toxic.
Assay [11] has as its system HepG2. Described as above.
In assay [12] the test system is Calu-3. The assay is described as above.
For assay [13], the system named is Caco-2. The assay is described as above.
Assay [14] deals with U2OS. Described as above.

The structures appear in SMILES notation. A value given as a limit tells only on which side of the number the result lay.

`CN(C)CCC(c1ccccc1)c1ccccn1` (stereo not given) [pheniramine]: the drug sensitivity score in [1] is 5.7; in assay [2], 0; in assay [3], 0; in assay [4], 0; in assay [5], 0. Also, the “relative viability EC50” value in assay [6], in assay [7], in [8] and in assay [9] was above 10 µM in each case. Also, the cell viability in [10] (1 nM) was determined as 91.4%; in [10] (10 nM), 57.3%; in [10] (100 nM), 101%; in assay [10] (1000 nM), 77.9%; in assay [10] (10000 nM), 79.5%; in assay [11] (1 nM), 96.4%. The cell viability in assay [11] (10 nM) was determined as 99.8%; in [11] (100 nM), 102%; in assay [11] (1000 nM) it was 103%; in assay [11] (10000 nM), 101%; in assay [12] (1 nM), 105%; in [12] (10 nM) it was 95.3%. Also, the cell viability stood at 99% in assay [12] (100 nM); 94.7% in [12] (1000 nM); 102% in assay [12] (10000 nM); 98.1% in [13] (1 nM); 96.6% in assay [13] (10 nM); 93.6% in assay [13] (100 nM). For the same molecule, the cell viability in assay [13] (1000 nM) was 91.6%; in assay [13] (10000 nM), 101%; in assay [14] (1 nM), 99.9%; in assay [14] (10 nM) it was 98.8%; in assay [14] (100 nM) it was 102%; in assay [14] (1000 nM) it was 97.6%. Also, the cell viability in [14] (10000 nM) is 109%.

Consider `Cc1cc2c(cc1CC(=O)c1sccc1S(=O)(=O)Nc1onc(C)c1Cl)OCO2` [sitaxentan], for which the drug sensitivity score in assay [4] and in [5] was 0 in each case. Further, the “relative viability EC50” value in [8] and in assay [9] was above 10 µM in each case. The cell viability in [13] (1 nM) came out at 114%; in [13] (10 nM), 98%; in [13] (100 nM) it was 102%; in assay [13] (1000 nM), 100%; in assay [13] (10000 nM), 108%; in [14] (1 nM), 99.6%. The cell viability is 99.6% in assay [14] (10 nM), 98.9% in assay [14] (100 nM), 101% in [14] (1000 nM) and 101% in assay [14] (10000 nM).

`CC(=O)Nc1ccc(C(=O)Nc2ccccc2N)cc1` [tacedinaline]: the drug sensitivity score in assay [1] was 3.5; in [2], 6.3; in assay [3], 6.1; in assay [4], 2.5; in assay [5], 4.6. The “relative viability EC50” value turned out to be 1.15 µM in assay [6], 1.14 µM in assay [7] and 1.91 µM in [9]. The cell viability in assay [10] (1 nM) turned out to be 99%; in assay [10] (10 nM) it was 104%; in assay [10] (100 nM) it was 97.9%; in [10] (1000 nM), 92.8%; in assay [10] (10000 nM) it was 54.7%; in [11] (1 nM), 104%. Besides, the cell viability in [11] (10 nM) was found to be 85.5%; in assay [11] (100 nM), 98%; in assay [11] (1000 nM) it was 74.4%; in [11] (10000 nM), 40.8%; in [12] (1 nM), 101%; in assay [12] (10 nM), 99.8%. For the same molecule, the cell viability in assay [12] (100 nM) worked out at 97.1%; in [12] (1000 nM) it was 74.5%; in assay [12] (10000 nM), 42.3%; in assay [13] (1 nM) it was 97.3%; in assay [13] (10 nM), 95.2%; in assay [13] (100 nM), 93.4%. In addition, the cell viability was 99.9% in [13] (1000 nM); 52.7% in [13] (10000 nM); 99% in assay [14] (1 nM); 103% in [14] (10 nM); 95.1% in assay [14] (100 nM); 90.7% in assay [14] (1000 nM). Further, the cell viability in assay [14] (10000 nM) turned out to be 43.1%.

As for `CC(=O)OC[C@H]1O[C@@H](n2ccc(=O)[nH]c2=O)[C@H](OC(C)=O)[C@@H]1OC(C)=O` [uridine-triacetate], the drug sensitivity score in assay [2] and in assay [4] was 0 throughout. The “relative viability EC50” value in [6] and in assay [8] was above 10 µM each time. Besides, the cell viability in assay [11] (1 nM) was determined as 106%; in assay [11] (10 nM) it was 113%; in assay [11] (100 nM) it was 106%; in assay [11] (1000 nM), 109%; in assay [11] (10000 nM), 95.4%; in assay [13] (1 nM), 101%. In addition, the cell viability in assay [13] (10 nM) turned out to be 110%; in [13] (100 nM), 114%; in assay [13] (1000 nM), 97.2%; in assay [13] (10000 nM) it was 115%.

Usually cell viability stands for a read-out of living cells in per cent, often relative to untreated cells.

The values above are taken from the supplement of paper PMC13380429.
